In brackets after ≈: the same amount, converted by molar mass. Read-outs that look alike come from different tables or passages of the source. Positions of bridges follow the written chain, without caps; N, C: chain ends. Non-standard residues stand in square brackets, D forms with d. Residues, ends and D or L forms follow the SMILES beside them. Cha = N[C@@H](CC1CCCCC1)C(=O)O; NMeNva = CCC[C@H](NC)C(=O)O; NMeAbu = CC[C@H](NC)C(=O)O; NMeC = CN[C@@H](CS)C(=O)O; NMeA = CN[C@@H](C)C(=O)O; dAbu = CC[C@@H](N)C(=O)O; dNMeA = CN[C@H](C)C(=O)O; Nva = CCC[C@H](N)C(=O)O; Abu = CC[C@H](N)C(=O)O; Nleu = CC(C)CNCC(=O)O; NPrGly = CCCNCC(=O)O; NEtG = CCNCC(=O)O
Experiments:
[1] = MDCK
Procedure: (§1) We also tested the permeabilities of the pure compounds in a cell-based trans-well permeability assay using Mdr1 knockout Madin–Darby canine kidney (MDCK) cells which minimize the endogenous efflux activity of traditional MDCK cells.[54]
(§2) The gMDCKI cell line (overexpressed cell line of Madin -Darby Canine Kidney which acquired from the NIH)
(§3) maintained in DMEM medium supplemented with 1% pen -strep, 5 µg/mL Plasmocin, and 10% FBS under
(§4) standard culture conditions (37 °C, 95% humidity, and 5% CO2), were seeded (0.75 x 10^5 cells) on the HTS
(§5) Transwell-96 permeable support (Corning) to form a confluent monolayer for two days.
(§6) All experimental steps were fully automated on Hamilton Vantage. Compound stock solution (1 mM in
(§7) DMSO) was diluted (10 μM final in HBSS, pH 7.4) with Lucifer Yellow as leakage indicator (20 μM). After
(§8) washing with HBSS buffer, the solution of test compounds was added to the apical side of the monolayers.
(§9) The plate was incubated for 3 h at 37 °C. T0 samples (10 µL of the 10 µM compounds diluted solution with
(§10) LY) were transferred to a 96-well plate, and then 40 µL of HBSS was added. After 3 hours, 50 μL basolateral
(§11) samples in the receiving plate were transferred to a fresh 96-well plate and added 100 μL of IS solution
(§12) (Propranolol). LY were read by plate reader and the samples were analyzed by LC/MS/MS.
(§13) The apparent permeability coefficient (Papp) is calculated from the permeation rate and compound
concentration at t=0h and t=3h. Where:
(§14) dQ/dt: amount of product present in the basal (A-B) or apical (B-A) compartment as a function of time
A: area of transwell (cm2).
(§15) C0: initial concentration of product applied in the apical (A -B) or basal (B-A) compartment (nmol/ml).

in vitro [2] = details: dog, pH 7.4
Procedure: as §1, §2, §3, §4, §5, §6, §7, §8, §9, §10, §11, §12, §13
concentration at t=0h and t=3h. Where:
as §14
A: area of transwell (cm2).
as §15

[3] = test system: Mdr1 knockout Madin–Darby canine kidney (MDCK) cells
Procedure: as §1, §2, §3, §4, §5, §6, §7, §8, §9, §10, §11, §12, §13
concentration at t=0h and t=3h. Where:
as §14
A: area of transwell (cm2).
as §15

in vitro [4] = details: PAMPA
[5] = PAMPA, 10 µM, pH 7.4
[6] = 10 µM, pH 7.4
in vitro [7] = details: PAMPA, pH 7.4, Permeability (Papp) PAMPA (mixture)
[8] = pH 7.4, Permeability (Papp) PAMPA (indiv.)
[9] = pH 7.4, aqueous with cosolvent or surfactant or cyclodextrin, kinetic from dmso stock
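For PAMPA Papp avg in this document: artificial membrane of 1% soy lecithin in dodecane on a filter plate, donor and acceptor buffer PBS pH 7.4 with 5% DMSO, incubated overnight at room temperature.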

Procedure for physchem: Kinetic Solubility PBS Protocol
4 µL of 10 mM compound in DMSO stock was added to 196 µL 1 X PBS pH 7.4 in a 96 -well microplate to
get a final concentration of 200 µM to shake for 24 hours at 1000 rpm. The sample was filtered sample
using a 96-Multiscreen HTS filter plate (Millipore MSSL BPC50) and a positive pressure manifold.

| %R_avg [5] | Papp at 10 µM (in vitro [4]; [8]) | Papp A→B at 3 h, 10 µM (in vitro [2]; MDCK) | solubility kinetic at 24 h (physchem; [9]) | Structure (SMILES) | other results |
| --- | --- | --- | --- | --- | --- |
| 17.1% | 4.1 ×10⁻⁶ cm/s | 4.5 ×10⁻⁶ cm/s |  | CCOC(=O)[C@@H]1CSCC(=O)N[C@@H](CC(C)C)C(=O)N(C)[C@@H](C)C(=O)N[C@@H](CC(C)C)C(=O)N2CCC[C@@H]2C(=O)N(CC)CC(=O)N[C@@H](CC)C(=O)N(C)[C@@H](C)C(=O)N[C@@H](CC(C)C)C(=O)N1C [LA02, O=C(N(C)[C@H](C(OCC)=O)CSCC(N[C@H](C(N(C)[C@@H](C)C(N[C@@H](CC(C)C)C(N1[C@H](CCC1)C(N(CC)CC(N[C@H]2CC)=O)=O)=O)=O)=O)CC(C)C)=O)[C@H](CC(C)C)NC([C@H](C)N(C)C2=O)=O] ({CH2CO}-L[NMeA]L[dP][NEtG][Abu][NMeA]L[NMeC]-OEt; thioether N-9) | PAMPA Papp_avg [6]: 4.1 ×10⁻⁶ cm/s; Papp at 3 h, 10 µM (in vitro [2]; MDCK): 4.5 ×10⁻⁶ cm/s; solubility kinetic at 24 h (physchem; pH 7.4, kinetic from dmso stock): 200 µM (≈ 196 µg/mL) |
| 6.6% | 1.3 ×10⁻⁶ cm/s | 8.4 ×10⁻⁶ cm/s | 122 µM (≈ 123 µg/mL) | CCC[C@@H]1NC(=O)[C@H](C)N(C)C(=O)[C@H](CC(C)C)NC(=O)CSC[C@@H](C(=O)OCC)N(C)C(=O)[C@H](CC(C)C)NC(=O)[C@H](C)N(C)C(=O)[C@H](CC(C)C)NC(=O)CN(CCC)C(=O)[C@H]2CCCN2C1=O [LA07, O=C(N(C)[C@H](C(OCC)=O)CSCC(N[C@H](C(N(C)[C@@H](C)C(N[C@@H](CCC)C(N1[C@H](CCC1)C(N(CCC)CC(N[C@H]2CC(C)C)=O)=O)=O)=O)=O)CC(C)C)=O)[C@H](CC(C)C)NC([C@H](C)N(C)C2=O)=O] ({CH2CO}-L[NMeA][Nva][dP][NPrGly]L[NMeA]L[NMeC]-OEt; thioether N-9) | Papp at 10 µM (in vitro [7]): 3 ×10⁻⁶ cm/s |
| 7.5% | 0.2 ×10⁻⁶ cm/s | 5.1 ×10⁻⁶ cm/s | 10 µM (≈ 10.3 µg/mL) | CCC[C@@H]1NC(=O)[C@H](C)N(C)C(=O)[C@H](CC(C)C)NC(=O)CSC[C@@H](C(=O)OCC)N(C)C(=O)[C@H](CC(C)C)NC(=O)[C@H](C)N(C)C(=O)[C@H](CC2CCCCC2)NC(=O)CN(CC)C(=O)[C@H]2CCCN2C1=O [LA09, O=C(N(C)[C@H](C(OCC)=O)CSCC(N[C@H](C(N(C)[C@@H](C)C(N[C@@H](CCC)C(N1[C@H](CCC1)C(N(CC)CC(N[C@H]2CC3CCCCC3)=O)=O)=O)=O)=O)CC(C)C)=O)[C@H](CC(C)C)NC([C@H](C)N(C)C2=O)=O] ({CH2CO}-L[NMeA][Nva][dP][NEtG][Cha][NMeA]L[NMeC]-OEt; thioether N-9) |  |
| 51.1% | 1.1 ×10⁻⁶ cm/s | 1.8 ×10⁻⁶ cm/s | 126 µM (≈ 124 µg/mL) | CCOC(=O)[C@@H]1CSCC(=O)N[C@@H](CC(C)C)C(=O)N(CC)CC(=O)N[C@@H](CC(C)C)C(=O)N2CCC[C@@H]2C(=O)N(C)[C@@H](C)C(=O)N[C@@H](CC)C(=O)N(C)[C@@H](C)C(=O)N[C@@H](CC(C)C)C(=O)N1C [LB02, O=C(N(C)[C@H](C(OCC)=O)CSCC(N[C@H](C1=O)CC(C)C)=O)[C@H](CC(C)C)NC([C@H](C)N(C)C([C@H](CC)NC([C@H](C)N(C)C([C@@H]2N(C([C@H](CC(C)C)NC(CN1CC)=O)=O)CCC2)=O)=O)=O)=O] ({CH2CO}-L[NEtG]L[dP][NMeA][Abu][NMeA]L[NMeC]-OEt; thioether N-9) | Papp at 10 µM (in vitro [7]): 1 ×10⁻⁶ cm/s; Papp A→B at 3 h, 10 µM (in vitro [2]): 1.77 ×10⁻⁶ cm/s |
| 35.8% |  | 2.6 ×10⁻⁶ cm/s | 105 µM (≈ 104 µg/mL) | CCCN1CC(=O)N[C@@H](CC(C)C)C(=O)N2CCC[C@@H]2C(=O)N(C)[C@@H](C)C(=O)N[C@@H](CC)C(=O)N(C)[C@@H](C)C(=O)N[C@@H](CC(C)C)C(=O)N(C)[C@H](C(=O)OCC)CSCC(=O)N[C@@H](CC(C)C)C1=O [LB04, O=C(N(C)[C@H](C(OCC)=O)CSCC(N[C@H](C1=O)CC(C)C)=O)[C@H](CC(C)C)NC([C@H](C)N(C)C([C@H](CC)NC([C@H](C)N(C)C([C@@H]2N(C([C@H](CC(C)C)NC(CN1CCC)=O)=O)CCC2)=O)=O)=O)=O] ({CH2CO}-L[NPrGly]L[dP][NMeA][Abu][NMeA]L[NMeC]-OEt; thioether N-9) | MDCK Papp_avg ([3]; dog, MDCK, 3 h, 10 µM, pH 7.4): 2.6 ×10⁻⁶ cm/s |
| 6.4% | 1.4 ×10⁻⁶ cm/s | 4.4 ×10⁻⁶ cm/s | 19 µM (≈ 19.7 µg/mL) | CCC[C@@H]1NC(=O)CN(CC)C(=O)[C@H](CC(C)C)NC(=O)CSC[C@@H](C(=O)OCC)N(C)C(=O)[C@H](CC(C)C)NC(=O)[C@H](C)N(C)C(=O)[C@H](CC2CCCCC2)NC(=O)[C@H](C)N(C)C(=O)[C@H]2CCCN2C1=O [LB09, O=C(N(C)[C@H](C(OCC)=O)CSCC(N[C@H](C1=O)CC(C)C)=O)[C@H](CC(C)C)NC([C@H](C)N(C)C([C@H](CC2CCCCC2)NC([C@H](C)N(C)C([C@@H]3N(C([C@H](CCC)NC(CN1CC)=O)=O)CCC3)=O)=O)=O)=O] ({CH2CO}-L[NEtG][Nva][dP][NMeA][Cha][NMeA]L[NMeC]-OEt; thioether N-9) |  |
| 4.5% | 1.1 ×10⁻⁶ cm/s | 3.9 ×10⁻⁶ cm/s | 109 µM (≈ 111 µg/mL) | CCC[C@@H]1NC(=O)[C@H](C)N(C)C(=O)[C@H](CC(C)C)NC(=O)CSC[C@@H](C(=O)OCC)N(C)C(=O)[C@H](CC(C)C)NC(=O)[C@H](C)N(C)C(=O)[C@H](CC(C)C)NC(=O)[C@H](CCC)N(C)C(=O)[C@H]2CCCN2C1=O [LC07, O=C(N(C)[C@H](C(OCC)=O)CSCC(N[C@H](C(N(C)[C@@H](C)C(N[C@@H](CCC)C(N1[C@H](CCC1)C(N(C)[C@@H](CCC)C(N[C@H]2CC(C)C)=O)=O)=O)=O)=O)CC(C)C)=O)[C@H](CC(C)C)NC([C@H](C)N(C)C2=O)=O] ({CH2CO}-L[NMeA][Nva][dP][NMeNva]L[NMeA]L[NMeC]-OEt; thioether N-9) |  |
| 6.1% | 0.3 ×10⁻⁶ cm/s | 1.8 ×10⁻⁶ cm/s | 10 µM (≈ 10.5 µg/mL) | CCC[C@@H]1NC(=O)[C@H](C)N(C)C(=O)[C@H](CC(C)C)NC(=O)CSC[C@@H](C(=O)OCC)N(C)C(=O)[C@H](CC(C)C)NC(=O)[C@H](C)N(C)C(=O)[C@H](CC2CCCCC2)NC(=O)[C@H](CC)N(C)C(=O)[C@H]2CCCN2C1=O [LC09, O=C(N(C)[C@H](C(OCC)=O)CSCC(N[C@H](C(N(C)[C@@H](C)C(N[C@@H](CCC)C(N1[C@H](CCC1)C(N(C)[C@@H](CC)C(N[C@H]2CC3CCCCC3)=O)=O)=O)=O)=O)CC(C)C)=O)[C@H](CC(C)C)NC([C@H](C)N(C)C2=O)=O] ({CH2CO}-L[NMeA][Nva][dP][NMeAbu][Cha][NMeA]L[NMeC]-OEt; thioether N-9) | MDCK Papp_avg ([3]; dog, MDCK, 3 h, 10 µM, pH 7.4): 1.8 ×10⁻⁶ cm/s |

Second part, the compound before the results:

| Structure (SMILES) | %R_avg [5] | Papp at 10 µM (in vitro [4]; [8]) | Papp A→B at 3 h, 10 µM (in vitro [2]; MDCK) | solubility kinetic at 24 h (physchem; [9]) | other results |
| --- | --- | --- | --- | --- | --- |
| CCOC(=O)[C@@H]1CSCC(=O)N[C@@H](CC)C(=O)N(C)[C@@H](C)C(=O)N[C@@H](CC(C)C)C(=O)N(C)[C@H](C)C(=O)N(CC(C)C)CC(=O)N[C@H](CC(C)C)C(=O)N(C)[C@H](C)C(=O)N[C@@H](CC(C)C)C(=O)N1C [A1-1L, O=C(N(C)[C@H](C(OCC)=O)CSCC(N[C@H](C(N(C)[C@@H](C)C(N[C@@H](CC(C)C)C(N(C)[C@H](C)C(N(CC(C)C)CC(N[C@@H]1CC(C)C)=O)=O)=O)=O)=O)CC)=O)[C@H](CC(C)C)NC([C@@H](C)N(C)C1=O)=O] ({CH2CO}-[Abu][NMeA]L[dNMeA][Nleu][dL][dNMeA]L[NMeC]-OEt; thioether N-9) |  |  |  |  | Papp [1]: 0.9 ×10⁻⁶ cm/s; Papp A→B (in vitro [2]): 0.93 ×10⁻⁶ cm/s |
| CCOC(=O)[C@@H]1CSCC(=O)N[C@H](CC)C(=O)N(C)[C@@H](C)C(=O)N[C@@H](CC(C)C)C(=O)N(C)[C@H](C)C(=O)N(CC(C)C)CC(=O)N[C@@H](CC(C)C)C(=O)N(C)[C@H](C)C(=O)N[C@@H](CC(C)C)C(=O)N1C [A1-6L, O=C(N(C)[C@H](C(OCC)=O)CSCC(N[C@@H](C(N(C)[C@@H](C)C(N[C@@H](CC(C)C)C(N(C)[C@H](C)C(N(CC(C)C)CC(N[C@H]1CC(C)C)=O)=O)=O)=O)=O)CC)=O)[C@H](CC(C)C)NC([C@@H](C)N(C)C1=O)=O] ({CH2CO}-[dAbu][NMeA]L[dNMeA][Nleu]L[dNMeA]L[NMeC]-OEt; thioether N-9) |  |  |  |  | Papp [1]: 0.9 ×10⁻⁶ cm/s; Papp A→B (in vitro [2]): 0.86 ×10⁻⁶ cm/s |
| CCOC(=O)[C@@H]1CSCC(=O)N[C@H](CC)C(=O)N(C)[C@@H](C)C(=O)N[C@@H](CC(C)C)C(=O)N(C)[C@H](C)C(=O)N(CC(C)C)CC(=O)N[C@H](CC(C)C)C(=O)N(C)[C@@H](C)C(=O)N[C@@H](CC(C)C)C(=O)N1C [A1-7L, O=C(N(C)[C@H](C(OCC)=O)CSCC(N[C@@H](C(N(C)[C@@H](C)C(N[C@@H](CC(C)C)C(N(C)[C@H](C)C(N(CC(C)C)CC(N[C@@H]1CC(C)C)=O)=O)=O)=O)=O)CC)=O)[C@H](CC(C)C)NC([C@H](C)N(C)C1=O)=O] ({CH2CO}-[dAbu][NMeA]L[dNMeA][Nleu][dL][NMeA]L[NMeC]-OEt; thioether N-9) |  |  |  |  | MDCK Pe_avg ([3]; resynthesized stereoscan compounds, 10 μM, HBSS pH 7.4, 3 h): 6.41 ×10⁻⁶ cm/s |
| CCOC(=O)[C@@H]1CSCC(=O)N[C@H](CC)C(=O)N(CC(C)C)CC(=O)N[C@@H](CC(C)C)C(=O)N(C)[C@H](C)C(=O)N(C)[C@@H](C)C(=O)N[C@H](CC(C)C)C(=O)N(C)[C@@H](C)C(=O)N[C@@H](CC(C)C)C(=O)N1C [B1-7L, O=C([C@@H](NC([C@@H](N(C([C@H](NC([C@@H](N(C([C@H](N(C)C([C@@H](NC(CN1CC(C)C)=O)CC(C)C)=O)C)=O)C)C)=O)CC(C)C)=O)C)C)=O)CC(C)C)N([C@@H](CSCC(N[C@H](CC)C1=O)=O)C(OCC)=O)C] ({CH2CO}-[dAbu][Nleu]L[dNMeA][NMeA][dL][NMeA]L[NMeC]-OEt; thioether N-9) |  |  |  |  | MDCK Pe_avg ([3]; dog, MDCK, 3 h, 10 µM, pH 7.4): 1.21 ×10⁻⁶ cm/s; Papp at 10 µM (in vitro [4]; pH 7.4, PAMPA Papp): 5.7 ×10⁻⁶ cm/s; Papp at 3 h, 10 µM (in vitro [2]; MDCK): 1.2 ×10⁻⁶ cm/s |

From PMC10885153, “Membrane Permeability in a Large Macrocyclic Peptide Driven by a Saddle-Shaped Conformation” (Journal of the American Chemical Society, 2024)
